According to US20060270708A1, “Novel process for preparation of isotonic aqueous injection of ropivacaine” (Navinta LLC, priority 2005, published 2006):

How the values were obtained:
[1] = racemate compared with either D or L isomer alone, U.S. Pat. No. 4,695,576; cited from earlier work
[2] = Hygroscopicity and stability of ropivacaine base and its salts; type: physicochemical
[3] = Content of ropivacaine base dissolved in the filtered solution, by HPLC against a control solution; type: physicochemical; details: equimolar or less concentrated hydrochloric acid, even at about 60° C.
Description: Each resulting solution was warmed to about 50° C. and then cooled to room temperature with stirring for about 30 min., after which was added a suitable quantity of sodium chloride, and the total volume of each was made up to 25 mL. Osmolality of the filtered solution was determined using conventional freezing point osmometer. The pH of these solutions were in the range 3.2 to 3.5. The content of ropivacaine base dissolved in the solution was determined by HPLC against a control solution prepared by dissolving the same base in excess of hydrochloric acid.
Each resulting solution was warmed to about 50° C. with stirring for about 30 min., then cooled to room temperature, after which was added a suitable quantity of sodium chloride. The pH was then adjusted to 5.0 using sodium hydroxide solution, and then the volume was made up to 25 mL. The osmolality of the filtered solution was determined using conventional freezing point osmometer. The content of ropivacaine base dissolved in the solution was determined by HPLC against a control solution prepared by dissolving the same base in excess of hydrochloric acid.

[4] = optically pure form compared to the racemic mixture of bupivacaine; cited from earlier work
[5] = reported in U.S. Pat. No. 4,870,086; cited from earlier work

CCCCN1CCCCC1C(=O)Nc1c(C)cccc1C (racemic) [bupivacaine, racemic N-n-butylpipecolic acid-2,6-xylidide]
analgesic effects [1]: better analgesic effects

CCCN1CCCC[C@H]1C(=O)Nc1c(C)cccc1C [ropivacaine base, (L) N-n-propylpipecolic acid-2,6-xylidide]
hygroscopicity [2]: not hygroscopic | stability compared with its hydrochloride or hydrochloride monohydrate salts [2]: much more stable | dissolution in aqueous media [3]: did not yield a completely homogeneous solution | cardio-toxic potential [4]: reduced cardio-toxic potential

CCCN1CCCC[C@H]1C(=O)Nc1c(C)cccc1C.Cl [(L) N-n-propylpipecolic acid-2,6-xylidide hydrochloride]
hygroscopicity / stability [5]: hygroscopic and thus not stable
